As usually defined, the IC50 is the concentration that gives 50% inhibition. For orientation: EC50 means the concentration giving half of the maximal effect.

The source made the active and inactive calls. The rule behind the calls is not given here. A value given as a limit tells only on which side of the number the result lay.

The values below come from ChEMBL document CHEMBL1141470, “4-(Heteroarylaminomethyl)-N-(2-aminophenyl)-benzamides and their analogs as a novel class of histone deacetylase inhibitors” (Bioorg Med Chem Lett, 2008).

The subject of test [1] is HCT-116. Nature of the test: Cytotoxicity against human HCT116 cells by MTT assay. The format is functional, cell-based. For orientation: Tetrazolium dyes change colour on reduction, which living cells bring about.
In test [2] the target is T1, Histone deacetylase 1 (Homo sapiens, UniProt Q13547). Nature of the test: Inhibition of recombinant HDAC1.
T1 sequence (Q13547 whole entry): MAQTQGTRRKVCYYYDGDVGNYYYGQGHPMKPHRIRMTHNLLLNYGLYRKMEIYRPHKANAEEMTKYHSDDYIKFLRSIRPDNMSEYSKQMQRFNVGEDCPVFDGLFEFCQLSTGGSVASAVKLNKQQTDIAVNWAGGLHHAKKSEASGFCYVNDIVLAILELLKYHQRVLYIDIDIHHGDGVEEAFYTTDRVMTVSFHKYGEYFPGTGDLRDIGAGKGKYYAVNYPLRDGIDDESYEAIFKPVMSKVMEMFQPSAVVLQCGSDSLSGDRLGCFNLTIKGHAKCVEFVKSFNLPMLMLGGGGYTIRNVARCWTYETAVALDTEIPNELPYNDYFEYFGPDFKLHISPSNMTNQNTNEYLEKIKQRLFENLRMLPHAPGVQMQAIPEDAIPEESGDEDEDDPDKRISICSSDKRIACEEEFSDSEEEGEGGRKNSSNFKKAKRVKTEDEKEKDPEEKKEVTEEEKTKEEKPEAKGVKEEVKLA
The next test has as its system HMEC. Nature of the test: Cytotoxicity against human HMEC cells by MTT assay. The format is cell-based.
Test [3] has as its target T1, Histone deacetylase 1. Nature of the test: Inhibition of HDAC1 in human T24 cells assessed as induction of histone H4 acetylation after 16 hrs relative to MS-275. Type of test: cell-based, T-24.
Test [4] concerns SW48. Nature of the test: Antitumor activity in human SW48 cells xenografted mouse assessed as tumor growth inhibition at 20 mg/kg, ip qd after 14 days relative to control. Type of test: functional. Set-up: scale not given: the % may be the effect or the level left. The note with it: route intraperitoneal. (In general: In xenograft studies the graft and the host belong to different species.)

For test [5], the system named is SW48. Nature of the test: Antitumor activity in human SW48 cells xenografted mouse assessed as tumor growth inhibition at 90 mg/kg, po qd after 14 days relative to control. The format is functional. Set-up: scale not given: the % may be the effect or the level left.
The test system of another test is T-24. Nature of the test: Induction of p21WAF1/CIP1 expression in human T24 cells. Type of test: functional, cell-based.
For a further test, the system named is PANC-1. Nature of the test: Antitumor activity in human PANC1 cells xenografted mouse assessed as tumor growth inhibition at 20 mg/kg, ip qd after 14 days relative to control. The format is functional. Set-up: scale not given: the % may be the effect or the level left. The note with it: route intraperitoneal.
Test [6] relates to A549. Nature of the test: Antitumor activity in human A549 cells xenografted mouse assessed as tumor growth inhibition at 90 mg/kg, po qd after 14 days relative to control. Set-up: scale not given: the % may be the effect or the level left. Type of test: functional.
In the next test the test system is COLO 205. Nature of the test: Antitumor activity in human COLO205 cells xenografted mouse assessed as tumor growth inhibition at 90 mg/kg, po qd after 14 days relative to control. Type of test: functional. Set-up: scale not given: the % may be the effect or the level left.
Test [7] relates to A549. Nature of the test: Antitumor activity in human A549 cells xenografted mouse assessed as tumor growth inhibition at 20 mg/kg, ip qd after 14 days relative to control. To be noted: route intraperitoneal. The format is functional. Set-up: scale not given: the % may be the effect or the level left.
Test [8] concerns HCT-116. Nature of the test: Cell cycle arrest in human HCT116 cells by accumulation at G2/M phase. Type of test: functional, cell-based.

Regarding `Cn1ccnc1SCc1ccc(C(=O)Nc2ccccc2N)cc1`, the results for the concentration for half-maximal inhibition (IC50) with HCT-116 [1] and on Histone deacetylase 1 [2] were 5 µM and 1 µM, respectively.
As to `Nc1ccccc1NC(=O)c1ccc(CSc2nnc(-c3ccccc3)o2)cc1`, the IC50 in the test with HCT-116 [1] worked out at 0.4 µM; at Histone deacetylase 1 [2], 0.08 µM.
Regarding `Nc1ccccc1NC(=O)c1ccc(CSc2nc3ccc(NCCN4CCOCC4)cc3s2)cc1`, the values for the IC50 in the test on HCT-116 [1], in the test with HMEC and at Histone deacetylase 1 [2] were 0.2 µM, 15 µM and 0.07 µM, respectively. Also, at Histone deacetylase 1 [3], the half-maximal effective concentration (EC50) amounted to 5 µM.
`Nc1ccccc1NC(=O)c1ccc(CNc2nc3ccc(OCCN4CCOCC4)cc3s2)cc1`: the Activity came out at 74% in the test with SW48 [4]; 72% in the test with SW48 [5]; 70% in the test on PANC-1; 65% in the test with A549 [6]; 62% in the test with COLO 205; 65% in the test on A549 [7]. The half-inhibitory concentration (IC50) was found to be 0.2 µM with HCT-116 [1], 15 µM in the test on HMEC and 0.06 µM on Histone deacetylase 1 [2]. For the same compound, the EC50 in the test with T-24 and on Histone deacetylase 1 [3] was 1 µM each time. For the same compound, the result with HCT-116 [8] was Active.
`COc1ccc2nc(SCc3ccc(C(=O)Nc4ccccc4N)cc3)[nH]c2c1`: the figures for the half-inhibitory concentration (IC50) in the test with HCT-116 [1], with HMEC and at Histone deacetylase 1 [2] were 0.2 µM, 10 µM and 0.07 µM, respectively. Moreover, the results for the half-maximal effective concentration (EC50) in the test with T-24 and on Histone deacetylase 1 [3] were 0.6 µM and 1 µM, respectively. Moreover, in the test on HCT-116 [8], the result was Active.
On to `Nc1ccccc1NC(=O)c1ccc(CSc2nc3ccc(NCc4ccccn4)cc3s2)cc1`, for which the 50% inhibitory concentration (IC50) in the test on HCT-116 [1] came to 1 µM; in the test on HMEC, 8 µM; at Histone deacetylase 1 [2], 0.07 µM. Besides, the EC50 at Histone deacetylase 1 [3] was 3 µM.
Consider `Nc1ccccc1NC(=O)c1ccc(CNc2cc(-c3ccccc3)[nH]n2)cc1`, for which the half-inhibitory concentration (IC50) with HCT-116 [1] was 0.3 µM; at Histone deacetylase 1 [2], 0.07 µM.
With `Nc1ccccc1NC(=O)c1ccc(CSc2nc3ccccc3[nH]2)cc1`, the results for the 50% inhibitory concentration (IC50) in the test with HCT-116 [1], in the test on HMEC and at Histone deacetylase 1 [2] were 0.3 µM, 14 µM and 0.09 µM, respectively. Further, the 50% effective concentration (EC50) on Histone deacetylase 1 [3] was less than 1 µM.
Consider `Nc1ccccc1NC(=O)c1ccc(CNc2ncc(-c3ccc(Cl)cc3)s2)cc1`, for which the IC50 in the test on HCT-116 [1] and on Histone deacetylase 1 [2] was 0.3 µM in each case.
Regarding `Nc1ccccc1NC(=O)c1ccc(CSc2ncc[nH]2)cc1`, the half-maximal inhibitory concentration (IC50) in the test on HCT-116 [1] came to 5 µM; on Histone deacetylase 1 [2] it was 0.5 µM.
For the compound `Nc1ccccc1NC(=O)c1ccc(CSc2nc3ccccc3s2)cc1`, the figures for the IC50 in the test with HCT-116 [1], in the test on HMEC and at Histone deacetylase 1 [2] were 0.8 µM, 3 µM and 0.1 µM, respectively. The concentration for a half-maximal effect (EC50) at Histone deacetylase 1 [3] is 3 µM.
In the case of `Nc1ccccc1NC(=O)c1ccc(CNc2ncc(Br)s2)cc1`, the IC50 with HCT-116 [1] and on Histone deacetylase 1 [2] was 0.4 µM in each case.
Consider `Nc1ccccc1NC(=O)c1ccc(CNc2nc3cc(Cl)ccc3o2)cc1`, for which the figures for the IC50 with HCT-116 [1], in the test with HMEC and at Histone deacetylase 1 [2] were 0.2 µM, 17 µM and 0.1 µM, respectively. In addition, on Histone deacetylase 1 [3], the EC50 was 1 µM.
In the same order, the values of `Nc1ccccc1NC(=O)c1ccc(CNc2nc3ccccc3[nH]2)cc1` are 0.3 µM, 27 µM, 0.1 µM and 1 µM.
As for `Nc1ccccc1NC(=O)c1ccc(CNc2nc3ccc(Br)cc3s2)cc1`, the half-maximal inhibitory concentration (IC50) in the test with HCT-116 [1] came out at 0.4 µM; with HMEC, 6 µM; on Histone deacetylase 1 [2], 0.05 µM. Further, the concentration for a half-maximal effect (EC50) on Histone deacetylase 1 [3] turned out to be 2 µM.
For the compound `COc1ccc2nc(NCc3ccc(C(=O)Nc4ccccc4N)cc3)sc2c1`, the IC50 with HCT-116 [1] turned out to be 0.2 µM; in the test with HMEC, 5 µM; on Histone deacetylase 1 [2], 0.03 µM. Moreover, the EC50 is 0.8 µM with T-24 and 1 µM at Histone deacetylase 1 [3]. Besides, the outcome in the test on HCT-116 [8] was Active.
Regarding `CSc1nnc(NCc2ccc(C(=O)Nc3ccccc3N)cc2)[nH]1`, the IC50 in the test on HCT-116 [1] amounted to 0.6 µM; on Histone deacetylase 1 [2], 0.2 µM.
In the case of `Nc1ccccc1NC(=O)c1ccc(CSc2nc3ccc(NCc4cccnc4)cc3s2)cc1`, the results for the IC50 in the test with HCT-116 [1], in the test on HMEC and at Histone deacetylase 1 [2] were 1 µM, greater than 50 µM and 0.8 µM, respectively. The half-maximal effective concentration (EC50) on Histone deacetylase 1 [3] was found to be 2 µM.
